For experiment [1], the target named is hGYS1 enzyme (recombinant hGYS1/GN1 protein) (Homo sapiens (Human), UniProt P13807). Briefly: GYS1 coupled enzyme assay (PK/LDH). It counts as biochemical. The settings on record: hGYS1/GN1 50 nM, UDP-Glucose 0.8 mM, G6P 1 mM; geometric mean of at least 2 runs.
The target in experiment [2] is hGYS2 enzyme (recombinant hGYS2/GN1 protein) (Homo sapiens (Human), UniProt P54840). The experiment is described as follows: GYS2 coupled enzyme assay (PK/LDH). The format is biochemical. The settings on record: geometric mean of at least 2 assay runs on separate days, read-out: Avg_IC50. In outline:
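Read-out: NADH loss at 340 nm, read each minute for 10 min, slope normalized to controls, duplicate % inhibition fit to Hill (0–100). Enzyme: 200 nM hGYS2/GN1; substrate 2 mM UDP-glucose plus 0.2% glycogen and 2 mM G6P; pH 7.5 Tris, 2.5% DMSO.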

For experiment [3], the system named is hGYS1 enzyme / glycogen synthesis in HeLa cells. The experiment is described as follows: GYS1 cell based assay (glycogen synthesis, Glucose-glo). More on the design: species or system human. The settings on record: Homo sapiens, HeLa, 24 h, 24 h incubation, 20 mM glucose, geometric mean of at least 2 runs. Put shortly:
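HeLa cells starved 24 h in medium containing only 1× Glutamax were plated onto compound in medium with 20 mM glucose (1% DMSO final) for 24 h, 37 °C, 5% CO2. Acid lysates were Tris-quenched, glucoamylase-digested (pH 5.3, 1 h, 37 °C) and read by Glucose-glo luminescence. IC50 came from Hill fits, as geometric mean of ≥2 runs.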

Sequence of hGYS2 enzyme (recombinant hGYS2/GN1 protein) (P54840 whole entry): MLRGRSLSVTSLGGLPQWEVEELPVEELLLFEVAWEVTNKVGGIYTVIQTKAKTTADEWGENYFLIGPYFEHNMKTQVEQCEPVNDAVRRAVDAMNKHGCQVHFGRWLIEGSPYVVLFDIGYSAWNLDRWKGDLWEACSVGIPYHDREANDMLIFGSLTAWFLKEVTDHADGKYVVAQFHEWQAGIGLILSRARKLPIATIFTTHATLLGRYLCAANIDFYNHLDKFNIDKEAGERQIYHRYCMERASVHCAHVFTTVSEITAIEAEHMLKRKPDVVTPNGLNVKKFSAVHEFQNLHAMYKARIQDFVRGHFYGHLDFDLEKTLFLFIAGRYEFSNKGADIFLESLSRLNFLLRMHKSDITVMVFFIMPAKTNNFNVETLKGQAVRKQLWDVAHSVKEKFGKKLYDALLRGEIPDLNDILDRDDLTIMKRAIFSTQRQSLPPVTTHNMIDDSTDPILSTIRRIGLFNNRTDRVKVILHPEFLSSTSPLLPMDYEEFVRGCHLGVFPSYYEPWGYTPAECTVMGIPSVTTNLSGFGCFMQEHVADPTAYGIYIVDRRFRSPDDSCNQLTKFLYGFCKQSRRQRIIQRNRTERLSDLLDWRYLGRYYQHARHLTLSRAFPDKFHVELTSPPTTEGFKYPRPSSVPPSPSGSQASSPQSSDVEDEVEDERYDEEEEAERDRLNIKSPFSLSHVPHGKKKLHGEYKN
Sequence of hGYS2 enzyme (recombinant hGYS2/GN1 protein) (P46976 whole entry partner): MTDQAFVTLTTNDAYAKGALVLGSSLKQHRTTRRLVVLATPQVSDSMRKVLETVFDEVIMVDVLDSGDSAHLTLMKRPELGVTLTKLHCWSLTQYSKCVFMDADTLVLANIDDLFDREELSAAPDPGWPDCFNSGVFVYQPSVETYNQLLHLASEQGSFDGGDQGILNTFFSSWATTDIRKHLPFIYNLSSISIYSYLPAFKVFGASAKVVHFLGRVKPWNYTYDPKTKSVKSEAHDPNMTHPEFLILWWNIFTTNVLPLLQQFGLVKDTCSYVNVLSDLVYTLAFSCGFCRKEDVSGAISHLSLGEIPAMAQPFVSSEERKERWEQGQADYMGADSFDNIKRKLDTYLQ
Sequence of hGYS1 enzyme (recombinant hGYS1/GN1 protein) (P13807 whole entry): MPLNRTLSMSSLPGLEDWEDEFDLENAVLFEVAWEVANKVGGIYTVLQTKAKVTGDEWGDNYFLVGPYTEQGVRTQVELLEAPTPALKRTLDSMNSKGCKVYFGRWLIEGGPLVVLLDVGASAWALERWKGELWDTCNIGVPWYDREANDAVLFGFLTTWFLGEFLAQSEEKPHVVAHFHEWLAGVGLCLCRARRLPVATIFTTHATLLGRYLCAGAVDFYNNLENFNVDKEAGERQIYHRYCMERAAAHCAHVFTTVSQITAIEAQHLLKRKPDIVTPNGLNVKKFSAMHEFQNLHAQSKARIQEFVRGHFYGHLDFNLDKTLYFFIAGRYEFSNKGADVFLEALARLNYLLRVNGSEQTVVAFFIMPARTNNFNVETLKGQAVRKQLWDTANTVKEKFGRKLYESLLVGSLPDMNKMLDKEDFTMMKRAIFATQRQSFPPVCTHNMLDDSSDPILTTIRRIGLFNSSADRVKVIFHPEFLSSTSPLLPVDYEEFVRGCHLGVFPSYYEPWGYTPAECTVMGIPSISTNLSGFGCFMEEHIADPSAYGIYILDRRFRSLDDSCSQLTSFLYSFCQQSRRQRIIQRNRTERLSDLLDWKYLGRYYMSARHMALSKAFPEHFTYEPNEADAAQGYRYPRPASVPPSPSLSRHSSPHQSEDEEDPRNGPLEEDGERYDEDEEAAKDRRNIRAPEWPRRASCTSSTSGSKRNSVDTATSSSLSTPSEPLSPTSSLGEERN
Sequence of hGYS1 enzyme (recombinant hGYS1/GN1 protein) (P46976 whole entry partner): as the sequence (P46976 whole entry partner) above

As for `CC(C)c1ccc([C@@H](NC(=O)[C@@H]2[C@H]3C[C@H]3CN2C(=O)Cc2cnn[nH]2)c2ccccc2)nc1F` [Compound 415, (1S,2S,5R)-N-[(S)-[6-fluoro-5-(propan-2-yl)pyridin-2-yl](phenyl)methyl]-3-[2-(1H-1,2,3-triazol-5-yl)acetyl]-3-azabicyclo[3.1.0] hexane-2-carboxamide], the IC50 in experiment [1] was 48 nM; in experiment [2], over 100 µM; in experiment [3], 710 nM.
The like results for `CC(C)c1ccc([C@@H](NC(=O)[C@@H]2CC[C@H](C)N2C(=O)Cc2cnn[nH]2)c2ccccc2)nc1F` [Compound 416, (2S,5S)-N-[(S)-[6-fluoro-5-(propan-2-yl)pyridin-2-yl](phenyl)methyl]-5-methyl-1-[2-(1H-1,2,3-triazol-5-yl)acetyl]pyrrolidine-2-carboxamide] were, in that order, 25 nM, over 100 µM and 470 nM.
Regarding `O=C(N[C@@H](c1ccccc1)c1ccc(C2CC2)c(F)c1)[C@@H]1C[C@@H](F)CN1C(=O)Cn1cnc2ccccc21` [Compound 417, (2S,4R)-1-(2-(1H-benzo[d]imidazol-1-yl)acetyl)-N—((S)-(4-cyclopropyl-3-fluorophenyl)(phenyl)methyl)-4-fluoropyrrolidine-2-carboxamide], the values for the IC50 in experiment [1], in experiment [2] and in experiment [3] were 23 nM, over 100 µM and 450 nM, respectively.
In the same order, the values of `CN1CCN(CC(=O)N2C[C@H](F)C[C@H]2C(=O)N[C@@H](c2ccccc2)c2ccc(C3CC3)c(F)c2)C1=O` [Compound 425, (2S,4R)-N-[(S)-(4-cyclopropyl-3-fluorophenyl)(phenyl)methyl]-4-fluoro-1-[2-(3-methyl-2-oxoimidazolidin-1-yl)acetyl]pyrrolidine-2-carboxamide] are 224 nM, over 100 µM and 3590 nM.
Regarding `O=C(N[C@@H](c1ccccc1)c1ccc(C2CC2)c(F)c1)[C@@H]1C[C@@H](F)CN1C(=O)Cc1nnc(C(F)F)o1` [Compound 427, (2S,4R)-N-[(S)-(4-cyclopropyl-3-fluorophenyl)(phenyl)methyl]-1-{2-[5-(difluoromethyl)-1,3,4-oxadiazol-2-yl]acetyl}-4-fluoropyrrolidine-2-carboxamide], the IC50 was 165 nM in experiment [1], over 100 µM in experiment [2] and 1960 nM in experiment [3].
Take `O=C(N[C@@H](c1ccccc1)c1ccc(C2CC2)c(F)c1)[C@@H]1C[C@@H](F)CN1C(=O)Cn1cnnn1` [Compound 431, (2S,4R)-N-[(S)-(4-cyclopropyl-3-fluorophenyl)(phenyl)methyl]-4-fluoro-1-[2-(1H-1,2,3,4-tetrazol-1-yl)acetyl]pyrrolidine-2-carboxamide]: the IC50 was 221 nM in experiment [1], over 100 µM in experiment [2] and 3350 nM in experiment [3].
For `Cc1nnn(CC(=O)N2C[C@H](F)C[C@H]2C(=O)N[C@@H](c2ccccc2)c2ccc(C3CC3)c(F)c2)n1` [Compound 433, (2S,4R)-N-[(S)-(4-cyclopropyl-3-fluorophenyl)(phenyl)methyl]-4-fluoro-1-[2-(5-methyl-2H-1,2,3,4-tetrazol-2-yl)acetyl]pyrrolidine-2-carboxamide], the results for the IC50 in experiment [1], in experiment [2] and in experiment [3] were 91 nM, over 100 µM and 1480 nM, respectively.
Regarding `Cc1cn(CC(=O)N2C[C@H](F)C[C@H]2C(=O)N[C@@H](c2ccccc2)c2ccc(C3CC3)c(F)c2)c(=O)[nH]c1=O` [Compound 442, (2S,4R)-N-[(S)-(4-cyclopropyl-3-fluorophenyl)(phenyl)methyl]-4-fluoro-1-[2-(5-methyl-2,4-dioxo-1,2,3,4-tetrahydropyrimidin-1-yl)acetyl]pyrrolidine-2-carboxamide], the IC50 in experiment [1] is 23 nM; in experiment [2] it was over 100 µM; in experiment [3], 860 nM.
As to `CN1CCN(C(=O)OCC(=O)N2C[C@H](F)C[C@H]2C(=O)N[C@@H](c2ccccc2)c2ccc(C3CC3)c(F)c2)CC1` [Compound 445, 2-[(2S,4R)-2-{[(S)-(4-cyclopropyl-3-fluorophenyl)(phenyl)methyl]carbamoyl}-4-fluoropyrrolidin-1-yl]-2-oxoethyl 4-methylpiperazine-1-carboxylate], the values for the IC50 in experiment [1], in experiment [2] and in experiment [3] were 75 nM, over 100 µM and 1660 nM, respectively.
Take `O=C(N[C@@H](c1ccccc1)c1ccc(C2CC2)c(F)c1)[C@@H]1C[C@@H](F)CN1C(=O)COC(=O)N1CCN(CC(F)(F)F)CC1` [Compound 446, 2-[(2S,4R)-2-{[(S)-(4-cyclopropyl-3-fluorophenyl)(phenyl)methyl]carbamoyl}-4-fluoropyrrolidin-1-yl]-2-oxoethyl 4-(2,2,2-trifluoroethyl)piperazine-1-carboxylate]: the IC50 in experiment [1] was 98 nM; in experiment [2], over 100 µM; in experiment [3] it was 2190 nM.
On to `O=C(N[C@@H](c1ccccc1)c1ccc(C2CC2)c(F)c1)[C@@H]1C[C@@H](F)CN1C(=O)COC(=O)N1CCN(CC2CC2)CC1` [Compound 447, 2-[(2S,4R)-2-{[(S)-(4-cyclopropyl-3-fluorophenyl)(phenyl)methyl]carbamoyl}-4-fluoropyrrolidin-1-yl]-2-oxoethyl 4-(cyclopropylmethyl) piperazine-1-carboxylate], for which the IC50 in experiment [1] was 96 nM; in experiment [2], over 100 µM; in experiment [3] it was 5320 nM.
For `COCCN1CCN(C(=O)OCC(=O)N2C[C@H](F)C[C@H]2C(=O)N[C@@H](c2ccccc2)c2ccc(C3CC3)c(F)c2)CC1` [Compound 448, 2-[(2S,4R)-2-{[(S)-(4-cyclopropyl-3-fluorophenyl)(phenyl)methyl]carbamoyl}-4-fluoropyrrolidin-1-yl]-2-oxoethyl 4-(2-methoxyethyl)piperazine-1-carboxylate], the IC50 in experiment [1] is 71 nM; in experiment [2], over 100 µM; in experiment [3] it was 1350 nM.
As for `Cn1c(=O)ccn(CC(=O)N2C[C@H](F)C[C@H]2C(=O)N[C@@H](c2ccccc2)c2ccc(C3CC3)c(F)c2)c1=O` [Compound 449, (2S,4R)-N-[(S)-(4-cyclopropyl-3-fluorophenyl)(phenyl)methyl]-4-fluoro-1-[2-(3-methyl-2,4-dioxo-1,2,3,4-tetrahydropyrimidin-1-yl)acetyl]pyrrolidine-2-carboxamide], the IC50 was 39 nM in experiment [1], over 100 µM in experiment [2] and 700 nM in experiment [3].
On to `O=C(N[C@@H](c1ccccc1)c1ccc(C2CC2)c(F)c1)[C@@H]1C[C@@H](F)CN1C(=O)Cn1nnc2ccccc21` [Compound 450, (2S,4R)-1-[2-(1H-1,2,3-benzotriazol-1-yl)acetyl]-N-[(S)-(4-cyclopropyl-3-fluorophenyl)(phenyl)methyl]-4-fluoropyrrolidine-2-carboxamide], for which the values for the IC50 in experiment [1], in experiment [2] and in experiment [3] were 94 nM, over 100 µM and 1730 nM, respectively.
As to `O=C(N[C@@H](c1ccccc1)c1ccc(C2CC2)c(F)c1)[C@@H]1C[C@@H](F)CN1C(=O)COC(=O)N1CCC1` [Compound 451, 2-[(2S,4R)-2-{[(S)-(4-cyclopropyl-3-fluorophenyl)(phenyl)methyl]carbamoyl}-4-fluoropyrrolidin-1-yl]-2-oxoethyl azetidine-1-carboxylate], the IC50 was 95 nM in experiment [1], over 100 µM in experiment [2] and 1570 nM in experiment [3].
Regarding `O=C(N[C@@H](c1ccccc1)c1ccc(C2CC2)c(F)c1)[C@@H]1C[C@@H](F)CN1C(=O)CNC(=O)N1CCOCC1` [Compound 452, N-{2-[(2S,4R)-2-{[(S)-(4-cyclopropyl-3-fluorophenyl)(phenyl)methyl]carbamoyl}-4-fluoropyrrolidin-1-yl]-2-oxoethyl} morpholine-4-carboxamide], the values for the IC50 in experiment [1], in experiment [2] and in experiment [3] were 40 nM, over 100 µM and 980 nM, respectively.
Regarding `O=C(N[C@@H](c1ccccc1)c1ccc(C2CC2)c(F)c1)[C@@H]1C[C@@H](F)CN1C(=O)CN1Cc2ccccc2C1=O` [Compound 453, (2S,4R)-N-[(S)-(4-cyclopropyl-3-fluorophenyl)(phenyl)methyl]-4-fluoro-1-[2-(1-oxo-2,3-dihydro-1H-isoindol-2-yl)acetyl] pyrrolidine-2-carboxamide], the figures for the IC50 in experiment [1], in experiment [2] and in experiment [3] were 77 nM, over 100 µM and 1840 nM, respectively.
The like results for `O=C(N[C@@H](c1ccccc1)c1ccc(C2CC2)c(F)c1)[C@@H]1C[C@@H](F)CN1C(=O)CN1C(=O)Cc2ccccc21` [Compound 454, (2S,4R)-N-[(S)-(4-cyclopropyl-3-fluorophenyl)(phenyl)methyl]-4-fluoro-1-[2-(2-oxo-2,3-dihydro-1H-indol-1-yl)acetyl]pyrrolidine-2-carboxamide] were, in that order, 72 nM, over 100 µM and 1600 nM.
For `CN1C(=O)C(CC(=O)N2C[C@H](F)C[C@H]2C(=O)N[C@@H](c2ccccc2)c2ccc(C3CC3)c(F)c2)c2ccccc21` (stereo partly drawn) [Compound 455, (2S,4R)-N-[(S)-(4-cyclopropyl-3-fluorophenyl)(phenyl)methyl]-4-fluoro-1-[2-(1-methyl-2-oxo-2,3-dihydro-1H-indol-3-yl)acetyl]pyrrolidine-2-carboxamide], the IC50 in experiment [1] is 291 nM; in experiment [2] it was over 100 µM; in experiment [3] it was 3620 nM.

The values are drawn from patent publication US11814367B2, “Inhibitors of glycogen synthase 1 (GYS1) and methods of use thereof” (Maze Therapeutics, Inc., priority 2021, dated 2023).
